Laboratory results taken from patent US12195482B1 (Arcus Biosciences, Inc., priority 2022, dated 2025).

Biological target: T1, Axl (Homo sapiens, UniProt P30530)
T1 sequence (P30530 26-894): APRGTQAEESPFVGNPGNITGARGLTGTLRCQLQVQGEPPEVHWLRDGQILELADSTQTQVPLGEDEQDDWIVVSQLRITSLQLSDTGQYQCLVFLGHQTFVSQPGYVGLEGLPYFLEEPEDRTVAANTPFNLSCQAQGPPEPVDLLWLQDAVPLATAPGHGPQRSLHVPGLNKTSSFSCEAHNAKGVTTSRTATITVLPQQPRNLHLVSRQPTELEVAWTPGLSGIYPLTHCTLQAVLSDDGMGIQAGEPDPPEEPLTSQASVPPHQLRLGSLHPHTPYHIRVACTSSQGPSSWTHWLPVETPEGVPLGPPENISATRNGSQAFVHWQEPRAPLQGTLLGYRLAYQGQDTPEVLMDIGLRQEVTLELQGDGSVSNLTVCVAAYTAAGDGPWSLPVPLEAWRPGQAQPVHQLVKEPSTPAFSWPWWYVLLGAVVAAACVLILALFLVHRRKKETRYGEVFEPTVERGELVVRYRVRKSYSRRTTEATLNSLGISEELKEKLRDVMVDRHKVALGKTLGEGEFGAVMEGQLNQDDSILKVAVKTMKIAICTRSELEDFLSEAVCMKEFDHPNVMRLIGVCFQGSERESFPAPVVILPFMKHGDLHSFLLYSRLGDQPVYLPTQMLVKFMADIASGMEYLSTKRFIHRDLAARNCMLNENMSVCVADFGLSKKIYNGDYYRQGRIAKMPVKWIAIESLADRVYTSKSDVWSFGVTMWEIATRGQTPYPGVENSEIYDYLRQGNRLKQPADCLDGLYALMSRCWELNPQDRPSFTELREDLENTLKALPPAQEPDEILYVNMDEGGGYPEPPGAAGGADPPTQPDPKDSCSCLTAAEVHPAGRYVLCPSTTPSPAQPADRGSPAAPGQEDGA
Assay: Axl NanoBRET intracellular kinase assay (intracellular binding, K-5 tracer displacement)
Set-up: host or cells: HEK-293
Conditions: HEK-293 cells transfected with Axl-NanoLuc, 0.35 μM K-5 NanoBRET tracer; read-out: Cell Binding AXL
How it was run: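 HEK-293 cells transiently transfected with Axl-NanoLuc, 8K cells/well at 0.5% DMSO, pre-incubated 1 h with compound at 37 °C, then 2 h with 0.35 μM K-5 tracer. BRET ratio 610/450 nm; IC50 by 4-parameter fit of tracer displacement.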

IC50: > 1000 nM
SMILES: COc1cccc(-c2ccc(-c3n[nH]c4ncc(-c5ccc6c(c5)CC[C@@H](N5C7COCC5C7)CC6)cc34)cc2)n1 [Example 162, 6-[(7S)-2-{3-[4-(6-Methoxypyridin-2-yl)phenyl]-2H-pyrazolo[3,4-b]pyridin-5-yl}-6,7,8,9-tetrahydro-5H-benzo[7]annulen-7-yl]-3-oxa-6-azabicyclo[3.1.1]heptane]
